By logP is commonly meant a log measure of how a compound divides between an organic and an aqueous phase. Higher therefore signals a more lipophilic compound. With `CC(=O)c1ccc(C(C)C)cc1`, the lipophilicity (logP) was determined as 2.98.

`c1ccc2c(c1)-c1cccc3cccc-2c13` came in with a logP of 5.16.

`Clc1ccc(-c2cc(Cl)c(Cl)cc2Cl)cc1` gave a logP of 6.67.

With `CS(=O)(=O)Nc1ccc(Cl)cc1`, the logP was found to be 1.85.

As to `O=NN1CCN(N=O)CC1`, the logP is -0.85.

For `NC(=O)c1ccc(F)cc1`, the logP was 0.91.

Compound `Cc1cccc(C2CNCCO2)c1` (stereo not drawn) came in with a logP of 1.52.

`NC(=O)NCc1ccccc1` came in with a logP of 0.73.

For `CCCCCC1(c2ccncc2)CCC(=O)NC1=O` (stereo not drawn), the logP turned out to be 2.26.

Compound `CCc1ccco1` returned a logP of 2.4.

`CCCC(=O)OCC(=O)C1(O)C(C)CC2C3CCC4=CC(=O)C=CC4(C)C3(F)C(O)CC21C` (stereo not drawn) displayed a logP of 3.55.

As to `Cc1ccccc1N`, the logP came out at 1.32.

Regarding `CI`, the logP is 1.51.

In turn, `COc1ccccc1Oc1ccccc1` registered a logP of 2.92.

The compound `CC(=O)Nc1ccncc1` showed a log partition coefficient (logP) of 0.5.

The compound `CNC(=S)NCCSCc1c[nH]cn1` had a log partition coefficient (logP) of 0.16.

For `CCN(CC)CCOC(=O)C=Cc1cc(OC)c(OC)c(OC)c1`, the logP stood at 2.84.

`COC(=O)c1ccc(N=NN(C)C)cc1` registered a logP of 3.22.

Turning to `CC(=O)Nc1cc(C(=O)NN)ccn1`, the logP was -1.25.

As to `COC1C(O)C(C)OC(OC2CCC3(C=O)C(CCC4C3CCC3(C)C(C5=CC(=O)OC5)CCC43O)C2)C1O` (stereo not drawn), the logP was determined as 1.05.

As for `Cc1cccs1`, the logP came out at 2.33.

In turn, `CC(=O)c1cccnc1` yielded a logP of 0.43.

For the compound `CN(Cc1ccccc1)c1ccccc1`, the logP was determined as 4.22.

With `O=S1(=O)OC(c2ccc(O)cc2)(c2ccc(O)cc2)c2ccccc21`, the lipophilicity (logP) is 3.02.

In turn, `c1ccc(OP2OCCO2)cc1` gave a logP of 1.42.

In the case of `COC(=O)C(C)NC(C)=O` (stereo not drawn), the lipophilicity (logP) is -0.57.

Regarding `CC(=O)c1cccc(NC(=O)N(C)C)c1`, the logP turned out to be 0.95.

Regarding `CC(=O)Nc1cccc(C(C)=O)c1`, the logP came out at 1.06.

As to `CCCOC(=O)c1cccnc1`, the logP was found to be 1.94.

Regarding `CCOc1ccccc1`, the logP is 2.51.

Consider `COC`, for which the logP is 0.1.

As for `COC(OC)OC`, the logP stood at 0.25.

Consider `CCCOc1ccc([N+](=O)[O-])c(S(C)(=O)=O)c1`, for which the logP is 1.1.

Take `CCCCCCOC(=O)n1cnc(CC(NC(=O)C2CCC(=O)N2)C(=O)N2CCCC2C(N)=O)c1` (stereo not drawn): the logP stood at 0.71.

Turning to `Cc1ccc(N)nc1`, the logP was found to be 1.02.

The compound `CC(C)Oc1ccccc1O` had a logP of 2.09.

In the case of `CCN(CC)CCOC(=O)C=Cc1ccc(F)cc1`, the logP came out at 3.52.

The compound `Cn1c(=O)cnc2ccccc21` yielded a logP of 0.79.

`CC=Cc1ccccc1` had a logP of 3.35.

`O=C(O)COc1ccc(Cl)cc1Cl`: the logP was 2.81.

`Clc1ccc(-c2c(Cl)cccc2Cl)cc1` yielded a logP of 5.75.

Compound `CC(=O)Nc1cnc2ccccc2n1` had a logP of 1.53.

`CC12CCC(=O)C=C1CCC1C3CCC(O)(C(=O)CO)C3(C)CC(O)C12F` (stereo not drawn) returned a logP of 1.67.

In the case of `CCCCC1CCCc2ncc(C(=O)OC)c(=O)n21` (stereo not drawn), the logP was 1.77.

As to `CNc1cnn(-c2cccc(C(F)(F)F)c2)c(=O)c1Cl`, the logP is 2.3.

With `CCCCCCCCCC(=O)OC`, the logP worked out at 4.41.

In the case of `CCC(C)OC(=O)C(C(=O)OC(C)CC)=C1SCCS1` (stereo not drawn), the logP stood at 4.53.

`COc1ccccc1NCC(N)=O`: the logP came to 0.78.

`C=C(CC(Cl)(Cl)Cl)c1ccccc1`: the logP was determined as 4.56.

`Cc1n[nH]c(C(=O)NCCc2ccccc2)c1[N+](=O)[O-]` yielded a logP of 1.82.

In the case of `CCC(=O)C(CS(=O)(=O)c1ccccc1)c1ccc(OC)cc1` (stereo not drawn), the logP was determined as 2.18.

With `CS(=O)(=O)Oc1ccccc1`, the logP amounted to 1.25.

Consider `CN(C)C(N(C)C)=S(I)c1ccc(F)cc1` (stereo not drawn), for which the logP was -0.58.

The compound `NC(=O)N(CCCl)N=O` yielded a logP of 0.57.

Regarding `CNC(=O)Oc1ccc(C(=O)OC)cc1`, the logP stood at 1.5.

For `CC(C)(N)Cc1ccccc1`, the logP came to 1.9.

For `CNc1nc(NC(C)(C)C)nc(SC(F)F)n1`, the logP was found to be 3.91.

Regarding `O=C(O)c1ccccc1Nc1cccc(C(F)(F)F)c1`, the lipophilicity (logP) worked out at 5.25.

Compound `COc1cc(S(C)=O)ccc1-c1nc2cnncc2[nH]1` (stereo not drawn) returned a lipophilicity (logP) of 0.39.

In turn, `CCOc1cccc(C(=O)NP(=O)(N2CC2)N2CC2)c1` yielded a logP of 1.24.

As to `FS(F)(F)(F)(F)c1ccccc1`, the lipophilicity (logP) was 3.36.

Consider `O=NN(CCCl)C(=O)NC1CCCCC1`, for which the logP is 2.83.

As to `NC(=O)Nc1nc(-c2ccccc2)no1`, the logP turned out to be 1.76.

For `CCOP(=S)(OCC)SCSCC`, the logP turned out to be 3.56.

In turn, `Nc1cc2ccccc2nn1` returned a logP of 1.

The compound `CN(C)c1ccc(NS(=O)(=O)c2ccc(N)cc2)cc1` registered a logP of 1.57.

Take `CNC(=O)Oc1ccc(Cl)cc1`: the lipophilicity (logP) was 2.01.

Compound `CCN(CC)C(=O)N(C)N=O` gave a logP of 1.11.

Turning to `CC1=NCCN1CCO`, the logP was 0.04.

In turn, `NS(=O)(=O)c1ccc([N+](=O)[O-])c(C(F)(F)F)c1` yielded a logP of 1.73.

In turn, `Clc1cccc(C(Cl)(Cl)Cl)n1` had a logP of 3.41.

Compound `Clc1cc(Cl)c(-c2c(Cl)cc(Cl)cc2Cl)c(Cl)c1` registered a logP of 7.55.

As for `C#CCO`, the lipophilicity (logP) is -0.38.

In the case of `O=Cc1ccsc1`, the logP was determined as 1.01.

In turn, `CCOC(=O)C(=Cc1c(Cl)cccc1Cl)C(C)=O` gave a logP of 2.86.

For the compound `COc1ccc(-c2cc3cnccc3[nH]2)c(OC)c1`, the logP stood at 3.5.

The compound `CCCCSCS(=O)CC(CO)NC(=O)C=Cc1c(C)[nH]c(=O)[nH]c1=O` (stereo not drawn) displayed a lipophilicity (logP) of 0.14.

For the compound `N#Cc1c(Cl)cccc1Cl`, the logP was determined as 2.74.

`COc1ccc(O)c2nccc(C)c12` had a logP of 2.75.

Compound `O=CNc1cccc2cccnc12` showed a logP of 1.8.

The compound `CCCCCC[N+](=O)[O-]` returned a logP of 2.7.

With `CC(F)F`, the logP was determined as 0.75.

Regarding `O=C(NC(CO)C(O)c1ccc([N+](=O)[O-])cc1)C(F)(F)F` (stereo not drawn), the logP is 1.07.

`COc1c(O)cc2c(c1OC)-c1ccc(SC)c(=O)cc1C(NC(=O)C(F)(F)F)CC2` (stereo not drawn) showed a logP of 2.61.

In the case of `COc1cc2c(c(OC)c1OC)-c1ccc(N)c(=O)cc1[C@@H](NC(C)=O)CC2`, the logP amounted to 0.3.

On to `NCCCC[C@H](N)C(=O)O`, for which the logP was -3.05.

Regarding `CCOC(=O)c1ccc([N+](=O)[O-])cc1`, the logP was 2.33.

`CC(C)(C)N` registered a logP of 0.4.

On to `COc1ccc(OC(=O)N(C)C)cc1`, for which the logP is 1.53.

The compound `O=NN1CCC(Cl)C(Cl)C1` (stereo not drawn) returned a logP of 1.04.

As for `O=C(O)Cc1ccc(OCCCc2ccccc2)c(Cl)c1`, the lipophilicity (logP) stood at 3.9.

In the case of `c1ccc2c(c1)Nc1ccccc1S2`, the logP is 4.15.

In the case of `O=[N+]([O-])c1ccccc1O`, the logP amounted to 1.79.

Compound `N#CCCl` had a logP of 0.45.

`CON(C)C(=O)Nc1ccc(C=C(C#N)C#N)cc1` came in with a logP of 2.19.

In the case of `C=CC(N)=O`, the logP is -0.67.

`CCNC(=O)CBr` came in with a logP of 0.34.

The compound `O=C(O)CCCCCN1C(=O)C=CC1=O` gave a logP of 1.15.

`CN(C)C(N(C)C)=S(I)c1ccc(Cl)cc1Cl` (stereo not drawn) returned a logP of 0.47.

`CC(=O)c1cccc(C#N)c1` came in with a logP of 1.16.

With `CC(C)=CC1C(C(=O)OCc2ccccc2)C1(C)C` (stereo not drawn), the logP worked out at 5.49.

`CC(=O)Nc1cccc2ncccc12` showed a logP of 0.71.

`CCC1(C2=CCCCCC2)C(=O)NC(=O)NC1=O` yielded a logP of 2.03.

In turn, `c1ccc(CNc2ccccc2)cc1` came in with a logP of 3.13.

Compound `CC(=O)OC(C)(C)C` yielded a lipophilicity (logP) of 1.76.

Compound `CCN1CCN(CC)C1=S` gave a logP of 1.13.

`FC(F)(Cl)Cl` registered a logP of 2.16.

In the case of `NC[C@H](O)c1ccc(O)c(O)c1`, the logP was -1.24.

As to `OC[C@@H](O)[C@@H](O)CO`, the logP was -2.29.

For `Oc1ccc(Cl)c(O)c1`, the logP came out at 1.8.

Compound `OCc1ccccn1` showed a logP of 0.06.

`CC1=C(N2CC2)C(=O)C(CCO)=C(N2CC2)C1=O` gave a lipophilicity (logP) of 0.49.

On to `NC(N)=O`, for which the log partition coefficient (logP) is -2.11.

As for `CC(=O)Sc1ccccc1`, the logP is 2.23.

`CC(=O)Nc1cc(C)c(O)c(C)c1`: the logP is 1.11.

`CC(=O)Nc1ccc(C=O)cc1`: the logP is 1.25.

Consider `COc1ccc(NC=O)cc1`, for which the logP is 1.03.

Compound `O=C(CCl)NC(CO)C(O)c1ccc([N+](=O)[O-])cc1` (stereo not drawn) returned a logP of 0.59.

For `FC(F)(F)c1ccccc1`, the logP was 3.01.

As for `CCOC(=O)NC1=C(N2CC2)C(=O)C(NC(=O)OCC)=C(N2CC2)C1=O`, the logP was -0.02.

Take `c1cnc2ncncc2n1`: the logP is -0.58.

On to `CCOC(=O)C(=Cc1ccccc1[N+](=O)[O-])C(=O)OCC`, for which the logP turned out to be 2.54.

Take `CCC(C)C(NC(=O)C(CCCCN)NC(C)=O)C(=O)NC(Cc1ccccc1)C(N)=O` (stereo not drawn): the logP turned out to be 0.65.

For the compound `Nc1ncnc2c1ncn2[C@@H]1O[C@H](CO)[C@@H](O)[C@H]1O`, the logP is -1.05.

`C=CC=CCC` yielded a lipophilicity (logP) of 3.16.

`COc1cc(Cl)cc(Cl)c1` had a logP of 3.8.

`CCOC(=O)C(Cc1ccccc1)C(=O)OCC`: the log partition coefficient (logP) worked out at 2.76.

Regarding `NS(=O)(=O)c1ccc([N+](=O)[O-])cc1`, the logP was 0.64.

The compound `CC(=O)Nc1ccccc1` showed a log partition coefficient (logP) of 1.16.

`CCOC(=O)/C(=C\c1ccccc1Cl)C(C)=O` came in with a logP of 2.84.

The compound `Cc1n[nH]c(C(=O)N2CCCCCC2)c1[N+](=O)[O-]` had a logP of 1.15.

As to `CNC(=O)Oc1ccccc1C#N`, the logP came out at 0.86.

Take `Cn1c(N)nc2cc(Cl)ccc21`: the logP is 2.09.

In turn, `Oc1c(Cl)c(Cl)cc(Cl)c1Cl` returned a logP of 3.88.

`FC(F)(F)c1nc2ccccc2[nH]1` came in with a logP of 2.67.

Turning to `Cc1ccc(COC(N)=O)cc1`, the logP came out at 1.76.

Turning to `COP(=O)(OC)SCn1nnc2ccccc2c1=O`, the logP is 0.78.

On to `COc1ccc(OCC(=O)O)cc1`, for which the logP worked out at 1.23.

Values taken from the OPERA property sets (Mansouri et al. 2018).
